We go through 72 compounds from ChEMBL document CHEMBL1764959, “Design, synthesis, and structure-activity relationship studies of thiophene-3-carboxamide derivatives as dual inhibitors of the c-Jun N-terminal kinase” (Bioorg Med Chem, 2011).

The target of the first series is Mitogen-activated protein kinase 8 (Homo sapiens, UniProt P45983). The experiment in a line: Inhibition of JNK1 by TR-FRET assay.
Sequence of Mitogen-activated protein kinase 8 (P45983 whole entry): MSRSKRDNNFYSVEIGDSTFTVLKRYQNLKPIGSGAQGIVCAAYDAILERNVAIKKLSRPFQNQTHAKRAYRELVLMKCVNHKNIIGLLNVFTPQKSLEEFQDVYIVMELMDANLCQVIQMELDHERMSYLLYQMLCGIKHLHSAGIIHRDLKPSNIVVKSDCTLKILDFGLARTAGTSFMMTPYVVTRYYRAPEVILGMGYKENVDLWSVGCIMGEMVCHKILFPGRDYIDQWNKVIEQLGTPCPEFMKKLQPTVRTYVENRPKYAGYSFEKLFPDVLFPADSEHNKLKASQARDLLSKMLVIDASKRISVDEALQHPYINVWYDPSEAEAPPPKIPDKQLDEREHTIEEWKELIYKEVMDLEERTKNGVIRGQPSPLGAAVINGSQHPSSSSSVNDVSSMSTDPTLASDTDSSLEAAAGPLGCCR
Details: not given
(In general: In TR-FRET formats the signal depends on donor and acceptor labels being close together.)
A word on the IC50: it is the concentration at which inhibition is half-maximal. A lower IC50 goes with higher potency. On to `NC(=O)c1ccsc1NC(=O)Cc1cc(F)cc2c1OCOC2`, for which the IC50 was determined as 4.9 µM.

On to `NC(=O)c1ccsc1NC(=O)Cc1nc2ccccc2[nH]1`, for which the IC50 is > 25 µM.

For the compound `NC(=O)c1ccsc1NC(=O)Cc1coc2ccccc12`, the IC50 was > 25 µM.

Regarding `NC(=O)c1ccsc1NC(=O)Cc1c(F)c(F)c(F)c(F)c1F`, the IC50 is > 50 µM.

Turning to `Cc1cccc(CC(=O)Nc2sccc2C(N)=O)c1`, the IC50 came out at 5.4 µM.

`NC(=O)c1ccsc1NC(=O)CN1CCN(C(=O)C2CC2)CC1` had an IC50 of 83.5 µM.

In the case of `NC(=O)c1ccsc1NC(=O)Cc1ccc(F)cc1F`, half-maximal inhibition (IC50) required 9.7 µM.

Turning to `Cc1sc(NC(=O)Cc2cccc3ccccc23)c(C(N)=O)c1C`, it took 26 µM to reach half-maximal inhibition (IC50).

`NC(=O)c1ccsc1NC(=O)Cc1c(F)cccc1Cl` came in with an IC50 of 12.5 µM.

For the compound `COC(=O)c1ccsc1NC(=O)Cc1cccc2ccccc12`, the IC50 is > 100 µM.

The compound `NC(=O)c1ccsc1NC(=O)Cc1cc(F)cc(F)c1` registered an IC50 of 8.2 µM.

`N#Cc1ccc(CC(=O)Nc2sccc2C(N)=O)cc1` yielded an IC50 of 3.4 µM. This IC50 lies about 2.4-fold lower than the previous one.

Take `NC(=O)c1ccsc1NC(=O)Cc1ccc(Br)cc1`: the IC50 was > 25 µM.

`COc1cccc(CC(=O)Nc2sccc2C(N)=O)c1` showed an IC50 of 2.6 µM.

As to `NC(=O)c1ccsc1NC(=O)Cc1cccc(F)c1`, the IC50 came out at 9.4 µM.

Take `NC(=O)c1ccsc1NC(=O)CN1CCN(S(=O)(=O)c2ccccc2C(F)(F)F)CC1`: 75.1 µM corresponded to half-maximal inhibition (IC50).

`NC(=O)c1ccsc1NC(=O)Cc1ccc(F)cc1` returned an IC50 of 5.1 µM. This IC50 lies about 15-fold lower than the previous one.

Take `NC(=O)c1ccsc1NC(=O)Cc1cccc(I)c1`: the IC50 worked out at 1.8 µM. Compared with the last compound, the IC50 is about 2.8-fold lower.

Take `NC(=O)c1ccsc1NC(=O)/C=C/c1ccccc1`: the IC50 was > 100 µM.

In turn, `NC(=O)c1ccsc1NC(=O)CN1CCN(Cc2ccco2)CC1` yielded an IC50 of 7.6 µM. This counts as single-digit micromolar.

`NC(=O)c1ccsc1NC(=O)Cc1ccc2c(c1)CCCC2` gave an IC50 of 3.6 µM.

`NC(=O)c1ccsc1NC(=O)Cc1ccccc1Br` had an IC50 of 2.9 µM.

As to `NC(=O)c1ccsc1NC(=O)Cc1cccc(Br)c1`, the IC50 came to 1.8 µM. This IC50 lies about 1.6-fold lower than the previous one.

For the compound `CC(C)Cc1ccc(CC(=O)Nc2sccc2C(N)=O)cc1`, the half-maximal inhibitory concentration (IC50) was > 25 µM.

For the compound `Cc1cc(C)cc(CC(=O)Nc2sccc2C(N)=O)c1`, the midpoint of inhibition, the IC50, lay at 2.7 µM.

Compound `NC(=O)c1ccsc1NC(=O)Cc1c(F)cccc1F` gave an IC50 of 7.4 µM.

`NC(=O)c1ccsc1NC(=O)Cc1ccccc1I` gave an IC50 of 3.4 µM.

With `NC(=O)c1ccsc1NC(=O)Cc1ccc2ccccc2c1`, the IC50 was > 25 µM.

`COc1cc(CC(=O)Nc2sccc2C(N)=O)cc(OC)c1` returned an IC50 of 3.1 µM.

Turning to `NC(=O)c1ccsc1NC(=O)Cc1csc2nc(-c3cccs3)cn12`, the IC50 stood at 2.5 µM.

For the compound `O=C(Cc1cccc2ccccc12)Nc1sccc1C(=O)O`, the IC50 is > 100 µM.

As for `NC(=O)c1ccsc1NC(=O)Cc1ccc2c(c1)CCC2`, inhibition was half-maximal at 2.5 µM (IC50).

On to `NC(=O)c1ccsc1NC(=O)Cc1ccc2c(c1)OCO2`, for which the half-inhibitory concentration (IC50) is 1.8 µM.

Regarding `NC(=O)c1ccsc1NC(=O)Cc1cc(Cl)c2c(c1)OCCCO2`, the IC50 worked out at 1.9 µM.

Consider `NC(=O)c1ccsc1NC(=O)Cc1cccc([N+](=O)[O-])c1`, for which the IC50 was > 25 µM.

Take `CC(C)c1ccc(CC(=O)Nc2sccc2C(N)=O)cc1`: the IC50 is > 25 µM.

Compound `NC(=O)c1ccsc1NC(=O)Cc1cccc(Cl)c1` yielded an IC50 of 2.6 µM. This lies in the single-digit micromolar range.

As to `COc1ccc(CC(=O)Nc2sccc2C(N)=O)cc1OC`, the half-inhibitory concentration (IC50) was > 25 µM.

Consider `NC(=O)c1ccsc1NC(=O)Cc1cc(F)ccc1F`, for which it took 5.8 µM to reach half-maximal inhibition (IC50). This counts as single-digit micromolar.

The compound `NC(=O)c1ccsc1NC(=O)Cc1ccc(C(F)(F)F)cc1` came in with an IC50 of 6.4 µM. This IC50 and that of the compound before are within 1.5-fold of each other.

Regarding `NC(=O)c1ccsc1NC(=O)Cc1c[nH]c2ccccc12`, it took 9.4 µM to reach half-maximal inhibition (IC50).

The compound `NC(=O)c1ccsc1NC(=O)Cc1cccc(C(F)(F)F)c1` showed an IC50 of 7.6 µM.

`NC(=O)c1ccsc1NC(=O)Cc1ccc(Cl)cc1` showed an IC50 of 18.7 µM.

The compound `NC(=O)c1ccsc1NC(=O)Cc1ccccc1` came in with a half-inhibitory concentration (IC50) of 3.6 µM.

In turn, `NC(=O)c1ccsc1NC(=O)Cc1cccnc1` had an IC50 of 8.1 µM.

The compound `CCOc1ccc(CC(=O)Nc2sccc2C(N)=O)cc1` registered an IC50 of 1.9 µM.

In the case of `NC(=O)c1ccsc1NC(=O)Cc1ccc(-c2ccccc2)cc1`, the IC50 was > 50 µM.

For the compound `Cc1ccccc1CC(=O)Nc1sccc1C(N)=O`, the IC50 is 6 µM.

Take `N#Cc1ccsc1NC(=O)Cc1cccc2ccccc12`: the IC50 is > 100 µM.

Turning to `COc1ccccc1CC(=O)Nc1sccc1C(N)=O`, the IC50 is 11.9 µM.

With `NC(=O)c1ccc(NC(=O)Cc2cccc3ccccc23)s1`, the IC50 was > 100 µM.

`COc1ccc(CC(=O)Nc2sccc2C(N)=O)cc1` returned an IC50 of 5.7 µM.

In turn, `NC(=O)c1ccsc1NC(=O)Cc1ccc(F)c(F)c1` came in with an IC50 of 10.2 µM.

As to `NC(=O)c1ccsc1NC(=O)Cc1ccc([N+](=O)[O-])cc1`, the IC50 was found to be 2.9 µM.

Compound `NC(=O)c1ccsc1NC(=O)c1ccccc1` gave an IC50 of 5.9 µM.

Consider `Cc1csc(NC(=O)Cc2cccc3ccccc23)c1C(N)=O`, for which the IC50 is > 25 µM.

On to `NC(=O)c1ccsc1NC(=O)Cc1ccccc1Cl`, for which the half-inhibitory concentration (IC50) was determined as 1.4 µM.

On to `COc1ccc2cc(Br)ccc2c1CC(=O)Nc1sccc1C(N)=O`, for which the IC50 was > 25 µM.

Consider `Cc1cc(C(N)=O)c(NC(=O)Cc2cccc3ccccc23)s1`, for which the concentration for half-maximal inhibition (IC50) is > 25 µM.

For `NC(=O)c1ccsc1NC(=O)Cc1ccc(OC(F)(F)F)cc1`, the IC50 stood at 5.8 µM.

Consider `COc1ccc2c(CC(=O)Nc3sccc3C(N)=O)c(Br)ccc2c1`, for which the IC50 is > 25 µM.

On to `Cc1ccc(CC(=O)Nc2sccc2C(N)=O)cc1`, for which the IC50 worked out at 4.3 µM.

Compound `CC1CN(CC(=O)Nc2sccc2C(N)=O)CC(C)O1` (stereo unspecified) had an IC50 of 65.3 µM.

With `Cc1cnc2sc(CC(=O)Nc3sccc3C(N)=O)cn12`, the IC50 amounted to 2.5 µM.

Turning to `NC(=O)c1ccsc1NC(=O)CN1CCOCC1`, the half-inhibitory concentration (IC50) is > 50 µM.

With `N#Cc1cccc(CC(=O)Nc2sccc2C(N)=O)c1`, the IC50 was 20.9 µM.

For `NC(=O)c1ccsc1NC(=O)Cc1ccccc1F`, the IC50 came out at 8.3 µM.

Consider `NC(=O)c1ccsc1NC(=O)Cc1nc(-c2cccs2)cs1`, for which the 50% inhibitory concentration (IC50) is > 25 µM.

For the compound `NC(=O)c1ccsc1NC(=O)Cc1csc(-c2ccccc2)n1`, the IC50 was > 25 µM.

`NC(=O)c1ccsc1NC(=O)CCc1ccccc1`: the IC50 was > 100 µM.

`NC(=O)c1ccccc1NC(=O)Cc1cccc2ccccc12`: the IC50 was > 100 µM.

Take `NC(=O)c1ccsc1NC(=O)Cc1ccc2ccc3cccc4ccc1c2c34`: the concentration for half-maximal inhibition (IC50) was > 50 µM.

A further series relates to Liver microsomes. The experiment in a line: Half life in rat liver microsomes by LC/MS analysis. It is filed as ADME, Microsome.
Details: not given
A general note: Microsomes from liver hold many membrane-bound enzymes, among them those of drug oxidation.
Compound `NC(=O)c1ccsc1NC(=O)Cc1cccc(Br)c1` registered a t1/2 of 24 min.

`NC(=O)c1ccsc1NC(=O)Cc1ccccc1Cl` gave a t1/2 of 27 min.

The test system of the next series is Plasma. The experiment in a line: Metabolic stability in rat plasma after 60 mins by LC/MS analysis. The following applies: 1 h. The series is classed as ADME, cell-free.
For the compound `NC(=O)c1ccsc1NC(=O)Cc1cccc(Br)c1`, the Stability entry was “Stable”.

On to `NC(=O)c1ccsc1NC(=O)Cc1ccccc1Cl`, for which the Stability entry is “Stable”.
